{
  "source": "patent US9604945B2",
  "about": "“Sydnonimines-specific dopamine reuptake inhibitors and their use in treating dopamine related disorders” (priority 2007, dated 2017)",
  "key": {"[1]": {"molecular_target": "dopamine transporter (DAT) (Cavia porcellus, UniProt H0WCX4)", "sequence (H0WCX4 1-619)": "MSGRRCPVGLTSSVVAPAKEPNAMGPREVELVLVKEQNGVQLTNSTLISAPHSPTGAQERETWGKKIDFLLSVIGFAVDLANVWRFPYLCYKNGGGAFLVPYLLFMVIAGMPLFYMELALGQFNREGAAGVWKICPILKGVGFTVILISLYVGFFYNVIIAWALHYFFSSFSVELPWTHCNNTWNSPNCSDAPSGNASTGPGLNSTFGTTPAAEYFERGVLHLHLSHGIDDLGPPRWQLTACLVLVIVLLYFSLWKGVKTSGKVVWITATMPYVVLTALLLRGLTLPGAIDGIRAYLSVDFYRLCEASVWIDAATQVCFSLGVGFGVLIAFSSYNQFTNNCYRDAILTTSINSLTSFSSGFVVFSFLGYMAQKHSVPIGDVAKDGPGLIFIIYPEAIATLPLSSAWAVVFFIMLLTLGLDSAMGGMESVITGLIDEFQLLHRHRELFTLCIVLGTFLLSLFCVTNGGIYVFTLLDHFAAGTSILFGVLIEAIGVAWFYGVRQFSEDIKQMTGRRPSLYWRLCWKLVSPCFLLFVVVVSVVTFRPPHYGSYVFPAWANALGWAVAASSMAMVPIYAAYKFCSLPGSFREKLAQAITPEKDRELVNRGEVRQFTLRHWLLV", "test": "Dopamine transporter binding assay [3H]WIN 35,428", "design": "species or system Guinea Pig", "conditions": "for inhibition at 10 µM: read-out: INH at 10 μM DAT", "method": "DAT inhibition activity was tested according to the procedure described by J. Javitz et al., Mol. Pharmacol., 26: 35-44 (1984). The test results for a number of representative compounds of the invention are reported hereinbelow.\nI. Dopamine Transporter Binding Assay [3H]WIN 35,428\n• This assay was carried out according to the procedure described by Javitch, J. J. et al., Mol. Pharmacol. 26: 35-44; 1984\nA. Tissue Preparation (Prepare all Solutions on Ice) • 1. Thaw frozen brains from male Guinea Pigs (in assay buffer) and place in 50 mM TRIS-HCl (pH 7.4 at 25° C. with 120 mM NaCl). Isolate striatum. • 2. Use a Polytron to homogenize tissue in 20 vols. (w/v) of 50 mM Tris-HCl (pH 7.4 at 25° C. with 120 mM NaCl). • 3. Centrifuge homogenate at 48,400×g for approximately 10 minutes at 4° C. Discard supernatant. • 4. Wash pellet an additional time as described in steps 2 and 3. • 5. Store pellet on ice until needed for binding assay. • 6. Using a Polytron (setting 5; approximately 10 seconds) resuspend pellet in 50 mM Tris-HCl (pH 7.4 at 25° C. with 120 mM NaCl) to an initial concentration of 10 mg/ml (original wet weight), such that the final concentration is 8 mg/ml or 4.0 mg tissue/tube.\nB. Binding Reaction • 1. Each tube receives the following components: • 50 ul drug or vehicle • 50 ul [3H]-WIN 35,428 • 400 ul tissue suspension. • 2. Initiate binding reaction with the addition of tissue, and incubate for 120 minutes at 0° C. (on ice). • 3. Terminate binding reaction by rapid filtration of tube contents onto untreated Whatman GF/C filters. • 4. Rinse the assay tubes once with ice cold 50 mM TRIS HCl (pH 7.4 at 25° C. with 120 mM NaCl, BSA), then rapidly rinse the filters with 6×1 mls/tube of the same wash buffer. • 5. Radioactivity trapped onto the filters is assessed using LSM machine. Let sit for 3 hours in scint cocktail.\nC. Dopamine Tranasporter Binding Assay\nMaterials and Reagents • 1. [3H]-WIN 35-428 is diluted to a concentration of 60 nM in 50 mM TRIS HCl (pH 7.4 at 25° C. with 120 mM NaCl). Thus, the final ligand concentration is 6 nM. • 2. Non-specific binding is defined as that remaining in the presence of 1×10^-6 M GBR12909 (room temperature cabinet). GBR12909 MW=523.5 g/mol. Will solubilize in 4% DMSO (sonicate 15 minutes). Aliquots can be used (1E-3). • 3. The reference compound for the assay is GBR12909 and is diluted in 4% DMSO and is then run at the following final concentrations: 1×10^−10, 5×10^−10, 2×10^−9, 5×10^−9, 1×10^−8, 2×10^−8, 5×10^−8, 1×10^−7, 2×10^−7, 5×10^−7, 1×10^−6, 5×10^−6. • 4. The positive control GBR12909 and is run at the final concentrations of: 2×10-8, 1×10^−7, 5×10^−7M. • 5. The Kd for the receptor is 28.0 nM. Buffers"}, "[2]": {"molecular_target": "Norepinephrine Transporter (Human Recombinant) (Homo sapiens (Human), UniProt P23975)", "test": "Norepinephrine transporter (human recombinant) binding assay, [3H]-Nisoxetine", "conditions": "for inhibition at 10 µM: read-out: INH at 10 μM NET", "method": "II: Norepinephrine Transporter (Human Recombinant) Binding Assay • This assay was carried out in accordance with the procedure described by Raisman, R, et al. Eur. Jrnl. Pharmacol. 78: 345-351 (1982) with modifications. See also, Langer, S., et al., Eur. Jrnl. Pharmacol, 72: 423-4 (1981). Tissue Preparation • 1. hrNET (Receptor Biology; RBNET) is diluted in assay buffer to 2.5 microunits/ml, so that each tube receives 0.5 microunits, or 2 microunits/ml. • NOTE: 100 microassays, add 20 mis of buffer. Binding Reaction • 1. Each tube receives the following components: • 25 ul drug or vehicle • 25 ul [^3H]-Nisoxetine • 200 ul tissue suspension. • 2. Initiate binding reaction with the addition of tissue, and incubate at room temperature for 1 hour. • 3. Terminate binding reaction by rapid filtration of tube contents onto 0.1% PEI treated GF/C filters (TopCount). • 4. Rinse the assay tubes once with ice cold 50 mM NaCl, then rapidly rinse the filters with 6×1 ml/tube of the same wash buffer. • 5. Radioactivity trapped onto the filters is assessed using liquid scintillation spectrophotometer after soaking the filters for at least 1 hour in scintillation cocktail. Materials and Reagents • 1. The receptor source is human recombinant/CHO. • 2. [^3H]-Nisoxetine, diluted to a concentration of 10 nM in assay buffer, is used as the radioligand. Thus, the final ligand concentration is 1 nM. • 3. Non specific binding is defined as that remaining in the presence of 1×10^−6M desipramine (MW=302.8) (Make fresh: in bag with dessicating rocks 1, dissolves in water 1E-3). • 4. The reference compound for the assay is desipramine. Desimpramine is run at following final concentrations: • 1×10^−10, 2×10^−10, 5×10^−10, 1×10^−9, 2×10^−9, 5×10^−9, 1×10^−8, 2×10^−8, 5×10^−8, 1×10^−7, 2×10^−7, 5×10^−7M • 5. The positive control is any of the above run at the final concentrations of: • 1×10^−9, 5×10^−9, 2×10^−8 M. • 6. The Kd for the receptor is 3 nM. Buffers"}, "[3]": {"conditions": "in vivo; cited from earlier work"}},
  "note": "Like-named read-outs stand apart in the source and are kept apart here.",
  "data": [
    {"smiles": "O=C(/N=c1\\[cH-][n+](Cc2ccccc2)no1)Nc1ccccc1", "note": "[Example 1, N-phenylcarbamoyl-3-(benzyl)-sydonimine]", "values": [
      {"measurement": "Ki", "setting": "[1]", "value": 36, "unit": "nM"},
      {"measurement": "inhibition at 10 µM", "setting": "[1]", "value": 90, "unit": "%"},
      {"measurement": "inhibition at 10 µM", "setting": "[2]", "value": 0, "unit": "%"}
    ]},
    {"smiles": "O=C([N-]c1c[n+](Cc2ccc(C(=O)O)cc2)no1)Nc1ccccc1", "note": "[Example 2]", "values": [
      {"measurement": "INH at 10 μM DAT", "setting": "[1]; 10 μM", "value": 92, "unit": "%"},
      {"measurement": "Ki", "setting": "[1]; read-out: Ki DAT", "value": 2.7, "unit": "nM"},
      {"measurement": "INH at 10 μM NET", "setting": "[2]; 10 μM", "value": 11, "unit": "%"}
    ]},
    {"smiles": "O=C(/N=c1\\[cH-][n+](CCc2ccccc2)no1)Nc1ccc(Cl)c(Cl)c1", "note": "[Example 4, N-(3′,4′-dichlorophenyl) carbamoyl-3-phenethyl sydnonimine]", "values": [
      {"measurement": "Ki", "setting": "[1]", "value": 40, "unit": "nM"},
      {"measurement": "inhibition at 10 µM", "setting": "[1]", "value": 99, "unit": "%"},
      {"measurement": "inhibition at 10 µM", "setting": "[2]", "value": 2, "unit": "%"}
    ]},
    {"smiles": "O=C(/N=c1\\[cH-][n+](CCc2ccc([N+](=O)[O-])cc2)no1)Nc1ccc([N+](=O)[O-])c([N+](=O)[O-])c1", "note": "[Example 5, N-(3′,4′-dinitrophenyl)carbamoyl-3-p-nitrophenethyl sydnonimine]", "values": [
      {"measurement": "Ki", "setting": "[1]", "value": 100, "unit": "nM"},
      {"measurement": "inhibition at 10 µM", "setting": "[1]", "value": 85, "unit": "%"},
      {"measurement": "inhibition at 10 µM", "setting": "[2]", "value": 4, "unit": "%"}
    ]},
    {"smiles": "O=C(/N=c1\\[cH-][n+](Cc2ccc(F)cc2)no1)Nc1ccccc1", "note": "[Example 7, N-phenylcarbamoyl-3-(p-fluoro-benzyl)-sydnonimine]", "values": [
      {"measurement": "Ki", "setting": "[1]", "value": 0.46, "unit": "nM"},
      {"measurement": "inhibition at 10 µM", "setting": "[1]", "value": 99, "unit": "%"},
      {"measurement": "inhibition at 10 µM", "setting": "[2]", "value": 15, "unit": "%"}
    ]},
    {"smiles": "CC(Cc1ccccc1)[n+]1cc([N-]C(=O)Nc2ccccc2)on1", "note": "(stereo not shown) [sydnocarb, 3-(1-methyl-2-phenylethyl)-N-(phenylcarbomoyl)sydnone imine]", "values": [
      {"measurement": "Effect on locomotor activity in open field studies", "setting": "[3]", "value": "locomotor stimulating effect"}
    ]}
  ]
}
